According to patent US20220251124A1, “3,5-BIS(PHENYL)-1H-HETEROARYL DERIVATIVES AS MEDICAMENTS” (INSTITUTE OF BIOTECHNOLOGY CAS, V.V.I., priority 2019, published 2022):

Tests used:
Assay type in all cases: cell-based
[1] = tested on: MCF7 mammospheres (cancer stem-like cells); test: formation and growth of mammospheres, Cell Titer Glo 3D; settings: 1 μM, 140 hrs
Procedure: To test the effect of compound 1 on the viability and proliferation of other resistant cancer cell types, we utilized a model of cancer stem-like cells that can be cultivated in vitro, so-called “mammospheres”. […] In this assay MCF7 spheres were dissociated to single cells/small spheres, seeded 10,000 cells per well on a special cell culture plastic that is non adherent in the Mammocult medium (Stem cell technologies) and compound 1 and compound 2 at 1 μM were added. This represents the non-cytotoxic concentration. Cells were left to grow and generate spheres for 140 hrs. The amount of cells was then measured by the Cell TiterGlo 3D reagent (Promega) that determines cell counts of 3D cultured cells as a function of their ATP content that is determined by a chemiluminescent assay.

MCF7 [2] = test: cell cycle distribution, Vybrant DyeCycle Violet, flow cytometry; settings: 1 μM
Procedure: (§1) In order to define the effect on cellular level, we investigated the effect of compound 1 and 2 at non-cytotoxic concentrations of the drugs (1 μM) on cell cycle. Cells were cultivated with the compounds for 24 and 48 hrs and then stained with Vybrant DyeCycle VioletReady Flow reagent (ThermoFisher Scientific) that binds to DNA and analyzed by Flow cytometry and Kaluza program to define the proportions of G1,S and G2/M phases of cell cycle. It is evident that both compounds lead to accumulation of cells in G1 phase if the cell cycle, which become more prominent at later time points (see Table 12, 13).

MDA-MB-231 [3] = test: as above; settings: 1 μM
Procedure: as §1

MCF7 [4] = test: annexin V/PI staining, cell death induction, 48 hrs
Procedure: (§2) This effect seems to be based mainly on the cytostatic effect of compound 1. To define the ability to kill cells, cell death-inducing potency (cytotoxic efficacy) of DFX and compound 1 have been tested via annexin V/PI staining commonly used as a measure of apoptotic/necrotic cell death. Briefly, cells were seeded in 12-well plate at 100,000 per well, incubated with the selected compounds for 48 hours, then floating cells were spun, adherent cells trypsinized and spun as well followed by the staining with AnnexinV-FITC and PI probes. Cells were then washed with PBS and measured via Fluorescence Activated Sorter.
(§3) Since compound 1 is an iron chelator, we have evaluated the effect of pre-loading compound 1 with iron at a 2:1 ratio and then applying it to the cells, followed by measurement of cell death using the Annexin V/PI staining as in example 4.

MDA-MB-231 [5] = test: as above
Procedure: as §2, §3

MCF7 [6] = test: cellular ROS, DCF-DA probe, flow cytometry; settings: 5 μM
Procedure: (§4) The effect of compound 1 on generation of cellular reactive oxygen species (ROS) was evaluated in MCF7 and MDA-MB-231 cells using a cell permeable ROS probe 2′,7′-dichlorodihydrofluorescein diacetate (DCF-DA; Sigma-Aldrich) that measures several reactive species and becomes fluorescent upon oxidation. Cells treated with compound 1 or compound 2 (5 μM) for the described time interval were stained with the probe and then analyzed via Flow cytometry.

MDA-MB-231 [7] = test: cellular ROS, DCF-DA probe, flow cytometry; settings: 5 μM
Procedure: as §4

MCF7 cells = test: crystal violet assay, cellular viability (cytostatic and cytotoxic effect), 48 hrs; settings: Homo sapiens, MCF7, 48 h, MCF7 (parental/control), crystal violet, read-out: IC50
Procedure: (§5) Compound 1 and a comparative compound deferasirox (DFX) were tested in their efficacy to kill/suppress proliferation of malignant breast cancer MCF7 cells representing estrogen-dependent type of breast cancer. Briefly, 10.000 cells per well were seeded in a 96-well plate on one day and the next day the tested compounds were added and incubated with the cells for 48 hrs. The cells were then fixed with 4% paraformaldehyde, stained with 0.05% crystal violet, washed with PBS, and solubilized in 1% SDS. The absorbance of the plate at 595 nm was then measured, quantifying the number of viable cells.

cancer cell lines = test: crystal violet assay, cancer cell lines overall; settings: cancer cells, crystal violet
Procedure: as §5

MDA-MB-231 cells = test: crystal violet assay, cellular viability, 48 hrs; settings: Homo sapiens, MDA-MB-231, 48 h, MDA-MB-231, crystal violet, read-out: IC50
Procedure: as §5
Compound 1 and the comparative compound deferasirox were tested in their efficacy to kill/suppress proliferation of malignant MDA-MB-231 cancer cells representing hard to treat triple negative breast cancer. The procedure is identical to that in example 12.

In the case of `Oc1ccccc1-c1nc(-c2ccccc2O)n(CCCCCCCCCC[P+](c2ccccc2)(c2ccccc2)c2ccccc2)n1` [Compound 2, (10-(3,5-bis(2-hydroxyphenyl)-1H-1,2,4-triazol-1-yl)decyl)triphenylphosphonium Bromide], the “chemiluminescence ATP values normalized to control sample set as 100” value [1] is reported as 2.82 (0.28), the “proportion of cells in G1” value (MCF7 [2]; 24 hrs) is reported as 74.0 (1.3) and the “proportion of cells in G2” value (MCF7 [2]; 24 hrs) is reported as 20.3. For the same compound, the “proportion of cells in S” value (MCF7 [2]; 24 hrs) was 5.7, the “proportion of cells in G1” value (MCF7 [2]; 48 hrs) was 77.5 (2.2) and the “proportion of cells in G2” value (MCF7 [2]; 48 hrs) was 11.7 (3.8). For the same compound, the “proportion of cells in S” value (MCF7 [2]; 48 hrs) was 10.8 (4.8), the “proportion of cells in G1” value (MDA-MB-231 [3]; 24 hrs) was 64.0 (7.7) and the “proportion of cells in G2” value (MDA-MB-231 [3]; 24 hrs) was 28.8 (8.0). For the same compound, the “proportion of cells in S” value (MDA-MB-231 [3]; 24 hrs) was 7.3, the “proportion of cells in G1” value (MDA-MB-231 [3]; 48 hrs) was 74.1 (3.7) and the “proportion of cells in G2” value (MDA-MB-231 [3]; 48 hrs) was 18.5 (5.1). For the same compound, the “proportion of cells in S” value (MDA-MB-231 [3]; 48 hrs) was 7.4, the “dead cells (AnnexinV/PI)” value (MCF7 [4]; 1 μM) was 44.2 (0.3) % and the “dead cells (AnnexinV/PI)” value (MCF7 [4]; 2 μM) was 41.2 (0.4) %. For the same compound, the “dead cells (AnnexinV/PI)” value (MCF7 [4]; 5 μM) was 60.8 (18.6) %, the “dead cells (AnnexinV/PI)” value (MDA-MB-231 [5]; 1 μM) was 26.7 (5.8) % and the “dead cells (AnnexinV/PI)” value (MDA-MB-231 [5]; 2 μM) was 38.5 (7.3) %. For the same compound, the “dead cells (AnnexinV/PI)” value (MDA-MB-231 [5]; 5 μM) was 87.8 (4.2) %, the DCF-DA mean fluorescence (MCF7 [6]; 5 min, MCF7 (0 min = 100)) was 316.5 (96.0) and the DCF-DA mean fluorescence (MCF7 [6]; 10 min, MCF7) was 558.3 (186.5). The DCF-DA mean fluorescence (MCF7 [6]; 15 min, MCF7) was 821.5 (73.8), the DCF-DA mean fluorescence (MCF7 [6]; 30 min, MCF7) was 1201.0 (444.0) and the DCF-DA mean fluorescence (MCF7 [6]; 60 min, MCF7) was 1029.0 (407.7). For the same compound, the DCF-DA mean fluorescence (MDA-MB-231 [7]; 5 min, MDA-MB-231 (0 min = 100)) was 255.9 (66.3), the DCF-DA mean fluorescence (MDA-MB-231 [7]; 10 min, MDA-MB-231) was 343.5 (78.9) and the DCF-DA mean fluorescence (MDA-MB-231 [7]; 15 min, MDA-MB-231) was 555.6 (122.4). For the same compound, the DCF-DA mean fluorescence (MDA-MB-231 [7]; 30 min, MDA-MB-231) was 473.4 (136.1), the DCF-DA mean fluorescence (MDA-MB-231 [7]; 60 min, MDA-MB-231) was 332.0 (158.7) and the IC50 (MCF7 cells) was 0.175 µM. For the same compound, the IC50 (cancer cell lines) was ~0.1 µM and the IC50 (MDA-MB-231 cells) was 0.464 µM.
